In general, half-life refers to the time needed for the level to fall by half in the phase considered. Read a high half-life as slow decline. Broadly, the IC50 is the concentration at which inhibition is half-maximal. Read a high IC50 as weaker potency in that assay. In general, logP refers to a log measure of how a compound divides between an organic and an aqueous phase.

Results on four compounds are retold here after ChEMBL document CHEMBL1136644, “Alkylation of manganese(II) tetraphenylporphyrin by antimalarial fluorinated artemisinin derivatives” (Bioorg Med Chem Lett, 2003).

The nature of data set [1]: Half-life in plasma. In kind it is ADME, cell-free.
The test system of another data set is Plasmodium falciparum. The data set can be described thus: In vitro inhibitory activity against the chloroquine-resistant Plasmodium falciparum W2 Indochina. Format: functional, organism-based.
Data set [2] in a line: Partition coefficient (logP). In kind it is physicochemical. Conditions: octanol/water.

With `C[C@H]1[C@@H](C(=O)OCCC(=O)[O-])O[C@@H]2O[C@]3(C)CC[C@H]4[C@H](C)CC[C@@H]1C24OO3.[Na+]`, in data set [1], the half-life is less than 2 h.
Take `C[C@@H]1CC[C@H]2[C@@H](C)[C@](O[Si](C)(C)C)(C(F)(F)F)O[C@@H]3O[C@]4(C)CC[C@@H]1C32OO4`: the IC50 with Plasmodium falciparum is 0.072 µM.
Turning to `CO[C@H]1O[C@@H]2OC3(C)CC[C@H]4[C@H](C)CC[C@@H]([C@H]1C)[C@@]24OO3` (single isomer, unassigned) [ARTEMETHER], the lipophilicity (logP) in data set [2] worked out at 3.36. The half-life in data set [1] is less than 2 h.
For `C[C@@H]1CC[C@H]2[C@@H](C)C(=O)O[C@@H]3OC4(C)CC[C@@H]1[C@]32OO4` (single isomer, unassigned) [ARTEMISININ], the half-life in data set [1] was less than 2 h.
